# Patent US20260130933A1, “PHARMACEUTICAL COMPOSITION FOR PREVENTION OR TREATMENT OF NEPHROPATHY AND/OR DIABETES MELLITUS, COMPRISING ENAVOGLIFLOZIN” (DAEWOONG PHARMACEUTICAL CO., LTD., priority 2022, published 2026)
# Assay: Example 3: phase 3 trial, enavogliflozin 0.3 mg vs dapagliflozin 10 mg once a day for 24 weeks added to metformin and gemigliptin in patients with type 2 diabetes (same endpoints, rescue drug)
# Type: in vivo, human
# Settings: week 12
# Method: 1) when Metformin (≥1,000 mg/Day) was Administered at a Constant Dose for at Least 8 Weeks Prior to Pre-Visit (Pre-Screening) • Metformin (≥1,000 mg/day) and gemigliptin (50 mg/day) were co-administered during the 8-week stabilization period. […] 4) when Metformin (≥1,000 mg/Day) and Gemigliptin (50 mg/Day) were Co-Administered at Constant Doses for at Least 8 Weeks Prior to Pre-Visit (Prescreening) • Without a separate stabilization period, Pre-visit (pre-screening) was Visit 1 (screening).
# Subjects who met the inclusion/exclusion criteria continued to receive metformin and gemigliptin while receiving a placebo of the clinical trial drug in a single-blind (subject-blinded) state for a 2-week run-in period.
# Here, the randomized subjects were stratified according to the administration therapy (co-administration with two or less agents (one or two agents) or three or more agents) of a conventional hypoglycemic agent (before washout of another hypoglycemic agent) within 24 weeks prior to obtaining written informed consent and by an HbA1c value (<8% or ≥8%) at Visit 1 (screening) measured in the central laboratory.
# The randomized subjects were administered two tablets of the clinical trial drug corresponding to each administration group once a day, and then visited the institution at weeks 6, 12, 18, and 24 during the 24-week administration period to conduct efficacy and safety assessments. In addition, during the clinical trial period, they were instructed to exercise regularly and control their diet without changing their daily life patterns.
# • 1) Change in HbA1c at week 24 after administration of clinical trial drug compared to Visit 2 (randomization)
# • 1) Change in HbA1c at each time point of weeks 6, 12, and 18 after administration of clinical trial drug compared to Visit 2 (randomization) • 2) Change in FPG at each time point of weeks 6, 12, 18, and 24 after administration of clinical trial drug compared to Visit 2 (randomization) • 3) Proportion of subjects achieving HbA1c<7% at each time point of weeks 6, 12, 18, and 24 after administration of clinical trial drug • 4) Proportion of subjects achieving HbA1c<6.5% at each time point of weeks 6, 12, 18, and 24 after administration of clinical trial drug • 5) Proportion of subjects achieving therapeutic response (HbA1c change (HbA1c at Visit 2—HbA1c at each evaluation time point)>0.5% or HbA1c<7% at each evaluation time point compared to Visit 2 (randomization)) at each time point of weeks 6, 12, 18, and 24 after administration of clinical trial drug • 6) Proportion of subjects achieving therapeutic response (HbA1c change (HbA1c at Visit 2—HbA1c at each evaluation time point)>0.7% or HbA1c<7% at each evaluation time point compared to Visit 2 (randomization)) at each time point of weeks 6, 12, 18, and 24 after administration of clinical trial drug • 7) Proportion of subjects achieving therapeutic response (HbA1c change (HbA1c at Visit 2—HbA1c at each evaluation time point)>1% or HbA1c<7% at each evaluation time point compared to Visit 2 (randomization)) at each time point of weeks 6, 12, 18, and 24 after administration of clinical trial drug
# [1] = modified per-protocol set 2, enavogliflozin 0.3 mg, dapagliflozin 10 mg
# [2] = per-protocol set, enavogliflozin 0.3 mg vs dapagliflozin 10 mg
# [3] = per-protocol set, enavogliflozin 0.3 mg, dapagliflozin 10 mg
smiles,measurement,setting,value
"OC[C@H]1O[C@@H](c2cc(Cc3ccc(C4CC4)cc3)c(Cl)c3c2CCO3)[C@H](O)[C@@H](O)[C@@H]1O [Enavogliflozin, (2S,3R,4R,5S,6R)-2-(7-chloro-6 (4-cyclopropylbenzyl)-2,3-dihydrobenzofuran-4-yl)-6-(hydroxymethyl)tetrahydro-2H-pyran-3,4,5-triol]","Change from baseline in diastolic blood pressure, Mean",modified per-protocol set 2,−5.07 mmHg
same,"Change from baseline in diastolic blood pressure, Median",modified per-protocol set 2,−5.00 mmHg
same,"Diastolic blood pressure, Mean",modified per-protocol set 2,71.61 mmHg
same,"Diastolic blood pressure, Median",modified per-protocol set 2,72.00 mmHg
same,"Change from baseline in systolic blood pressure, ANCOVA LS mean difference","modified per-protocol set 2, enavogliflozin 0.3 mg vs dapagliflozin 10 mg",−1.37 mmHg
same,"Change from baseline in systolic blood pressure, ANCOVA LS mean",[1],−6.43 mmHg
same,"Change from baseline in systolic blood pressure, Mean",[1],−7.10 mmHg
same,"Change from baseline in systolic blood pressure, Median",[1],−8.00 mmHg
same,"Systolic blood pressure, Mean",[1],120.73 mmHg
same,"Systolic blood pressure, Median",[1],121.00 mmHg
same,"Adiponectin, Mean",per-protocol set,7.13 µg/mL
same,"Adiponectin, Median",per-protocol set,6.24 µg/mL
same,"Change from baseline in HOMA-IR, ANCOVA LS mean",per-protocol set,−1.11
same,"Change from baseline in HOMA-IR, LS mean difference (enavogliflozin − dapagliflozin)",per-protocol set,−0.06
same,"Change from baseline in HOMA-IR, Mean",per-protocol set,−1.16
same,"Change from baseline in HOMA-IR, Median",per-protocol set,−0.79
same,"Change from baseline in HOMA-β, ANCOVA LS mean",per-protocol set,7.78
same,"Change from baseline in HOMA-β, LS mean difference (enavogliflozin − dapagliflozin)",per-protocol set,2.55
same,"Change from baseline in HOMA-β, Mean",per-protocol set,6.71
same,"Change from baseline in HOMA-β, Median",per-protocol set,4.80
same,"Change from baseline in UACR, ANCOVA LS mean",per-protocol set,-15.12 g/kg
same,"Change from baseline in UACR, LS mean difference (enavogliflozin − dapagliflozin)",per-protocol set,-3.35 g/kg
same,"Change from baseline in UACR, Mean",per-protocol set,-18.62 g/kg
same,"Change from baseline in UACR, Median",per-protocol set,-1.05 g/kg
same,"Change from baseline in UGCR, ANCOVA LS mean",per-protocol set,58.21 mg/mg
same,"Change from baseline in UGCR, LS mean difference (enavogliflozin − dapagliflozin)",per-protocol set,13.37 mg/mg
same,"Change from baseline in UGCR, Mean",per-protocol set,57.00 mg/mg
same,"Change from baseline in UGCR, Median",per-protocol set,57.05 mg/mg
same,"Change from baseline in adiponectin, ANCOVA LS mean",per-protocol set,0.89 µg/mL
same,"Change from baseline in adiponectin, LS mean difference (enavogliflozin − dapagliflozin)",per-protocol set,0.19 µg/mL
same,"Change from baseline in adiponectin, Mean",per-protocol set,0.88 µg/mL
same,"Change from baseline in adiponectin, Median",per-protocol set,1.00 µg/mL
same,"Change from baseline in leptin, ANCOVA LS mean",per-protocol set,-1.97 ng/mL
same,"Change from baseline in leptin, LS mean difference (enavogliflozin − dapagliflozin)",per-protocol set,-0.28 ng/mL
same,"Change from baseline in leptin, Mean",per-protocol set,-1.96 ng/mL
same,"Change from baseline in leptin, Median",per-protocol set,-1.28 ng/mL
same,"HOMA-IR (insulin resistance), Mean",per-protocol set,1.76
same,"HOMA-IR (insulin resistance), Median",per-protocol set,1.46
same,"HOMA-β (beta-cell function), Mean",per-protocol set,49.46
same,"HOMA-β (beta-cell function), Median",per-protocol set,41.50
same,"Leptin, Mean",per-protocol set,8.56 ng/mL
same,"Leptin, Median",per-protocol set,5.74 ng/mL
same,"UACR, Mean",per-protocol set,29.37 g/kg
same,"UACR, Median",per-protocol set,11.20 g/kg
same,"UGCR, Mean",per-protocol set,57.71 mg/mg
same,"UGCR, Median",per-protocol set,57.43 mg/mg
same,"Achieving HbA1c target of <6.5%, odds ratio (logistic regression model)",[2],1.44
same,"Achieving HbA1c target of <7%, odds ratio (logistic regression model)",[2],1.20
same,"Change from baseline in FPG, ANCOVA LS mean difference",[2],-2.75 mg/dL
same,"Change from baseline in HbA1c, ANCOVA LS mean difference",[2],−0.04 % p
same,"Change from baseline in body weight, ANCOVA LS mean difference",[2],-0.01 kg
same,"Change from baseline in fasting C-peptide, ANCOVA LS mean difference",[2],-0.02 ng/mL
same,"Therapeutic glycemic response 1, odds ratio (logistic regression model)",[2],1.09
same,"Therapeutic glycemic response 2, odds ratio (logistic regression model)",[2],1.30
same,"Therapeutic glycemic response 3, odds ratio (logistic regression model)",[2],1.31
same,"Body weight, Mean",[3],66.54 kg
same,"Change from baseline in FPG, ANCOVA LS mean",[3],-27.17 mg/dL
same,"Change from baseline in FPG, Mean",[3],-27.47 mg/dL
same,"Change from baseline in FPG, Median",[3],-25.00 mg/dL
same,"Change from baseline in HbA1c, ANCOVA LS mean",[3],−0.87 % p
same,"Change from baseline in HbA1c, Mean",[3],−0.89 % p
same,"Change from baseline in HbA1c, Median",[3],−0.75 % p
same,"Change from baseline in body weight, ANCOVA LS mean",[3],-2.72 kg
same,"Change from baseline in body weight, Mean",[3],-2.65 kg
same,"Change from baseline in body weight, Median",[3],-2.90 kg
same,"Change from baseline in fasting C-peptide, ANCOVA LS mean",[3],-0.09 ng/mL
same,"Change from baseline in fasting C-peptide, Mean",[3],-0.09 ng/mL
same,"Change from baseline in fasting C-peptide, Median",[3],-0.10 ng/mL
same,"FPG, Mean",[3],112.29 mg/dL
same,"FPG, Median",[3],110.00 mg/dL
same,"Fasting C-peptide, Mean",[3],0.64 ng/mL
same,"Fasting C-peptide, Median",[3],0.63 ng/mL
same,"HbA1c, Mean",[3],6.90%
